Assay results taken from the supplement of paper PMC4862054.

Key:
Settings in all cases: incubation time: 72 h
BT-474 [1] = experiment: normalised response (% of control), CellTox Green; higher = less cell death (100 = DMSO, 0 = benzethonium chloride kill control)
Procedure, shortened: (§1)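 Two readouts were taken after 72 h: CellTox Green fluorescence (485/520 nm) first, then CellTiter-Glo luminescence after 10 min at room temperature. Breast cancer cell lines had been seeded as 20 µl suspension into 384-well plates holding compound at 5 concentrations in 10-fold steps across a compound-specific 10,000-fold range. Each value is a normalised signal at a single concentration, with plates scaled to 0.1 % DMSO (100) and a positive kill control (0).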

CAL-120 [2] = experiment: as above
Procedure, shortened: as §1

CAL-148 [3] = experiment: as above
Procedure, shortened: as §1

CAL-51 [4] = experiment: as above
Procedure, shortened: as §1

CAL-85-1 [5] = experiment: as above
Procedure, shortened: as §1

DU-4475 [6] = experiment: as above
Procedure, shortened: as §1

HCC1143 [7] = experiment: as above
Procedure, shortened: as §1

HCC1599 [8] = experiment: as above
Procedure, shortened: as §1

HCC1937 [9] = experiment: as above
Procedure, shortened: as §1

HDQ-P1 [10] = experiment: as above
Procedure, shortened: as §1

Hs578T [11] = experiment: as above
Procedure, shortened: as §1

MCF-10A [12] = experiment: as above
Procedure, shortened: as §1

MDA-MB-231 [13] = experiment: as above
Procedure, shortened: as §1

MDA-MB-436 [14] = experiment: as above
Procedure, shortened: as §1

MDA-MB-453 [15] = experiment: as above
Procedure, shortened: as §1

MDA-MB-468 [16] = experiment: as above
Procedure, shortened: as §1

MFM-223 [17] = experiment: as above
Procedure, shortened: as §1

BT-474 [18] = experiment: normalised response (% of control), CellTiter-Glo; higher = more viable cells (100 = DMSO, 0 = benzethonium chloride kill control)
Description: (§2)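 DSRT, 72 h incubation, CellTox Green / CellTiter-Glo readout. Signal is normalised to DMSO and benzethonium chloride controls. Value is the normalised response at dose 3.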

BT-549 [19] = experiment: as above
Description: as §2

CAL-120 [20] = experiment: as above
Description: as §2

CAL-148 [21] = experiment: as above
Description: as §2

CAL-51 [22] = experiment: as above
Description: as §2

CAL-85-1 [23] = experiment: as above
Description: as §2

DU-4475 [24] = experiment: as above
Description: as §2

HCC1143 [25] = experiment: as above
Description: as §2

HCC1599 [26] = experiment: as above
Description: as §2

HCC1937 [27] = experiment: as above
Description: as §2

HDQ-P1 [28] = experiment: as above
Description: as §2

Hs578T [29] = experiment: as above
Description: as §2

MCF-10A [30] = experiment: as above
Description: as §2

MDA-MB-231 [31] = experiment: as above
Description: as §2

MDA-MB-436 [32] = experiment: as above
Description: as §2

MDA-MB-453 [33] = experiment: as above
Description: as §2

MDA-MB-468 [34] = experiment: as above
Description: as §2

MFM-223 [35] = experiment: as above
Description: as §2

SK-BR-3 = experiment: as above
Description: as §2

BT-549 [36] = experiment: normalised response (% of control), CellTox Green; higher = less cell death (100 = DMSO, 0 = benzethonium chloride kill control)
Procedure, shortened: as §1

Structure (SMILES) | normalised response (BT-474 [1]) [%] | normalised response (CAL-120 [2]) [%] | normalised response (CAL-148 [3]) [%] | normalised response (CAL-51 [4]) [%] | normalised response (CAL-85-1 [5]) [%] | normalised response (DU-4475 [6]) [%] | normalised response (HCC1143 [7]) [%] | normalised response (HCC1599 [8]) [%] | normalised response (HCC1937 [9]) [%] | normalised response (HDQ-P1 [10]) [%] | normalised response (Hs578T [11]) [%] | normalised response (MCF-10A [12]) [%] | normalised response (MDA-MB-231 [13]) [%] | normalised response (MDA-MB-436 [14]) [%] | normalised response (MDA-MB-453 [15]) [%] | normalised response (MDA-MB-468 [16]) [%] | normalised response (MFM-223 [17]) [%] | normalised response (BT-474 [18]) [%] | normalised response (BT-549 [19]) [%] | normalised response (CAL-120 [20]) [%] | normalised response (CAL-148 [21]) [%] | normalised response (CAL-51 [22]) [%] | normalised response (CAL-85-1 [23]) [%] | normalised response (DU-4475 [24]) [%] | normalised response (HCC1143 [25]) [%] | normalised response (HCC1599 [26]) [%] | normalised response (HCC1937 [27]) [%] | normalised response (HDQ-P1 [28]) [%] | normalised response (Hs578T [29]) [%] | normalised response (MCF-10A [30]) [%] | normalised response (MDA-MB-231 [31]) [%] | normalised response (MDA-MB-436 [32]) [%] | normalised response (MDA-MB-453 [33]) [%] | normalised response (MDA-MB-468 [34]) [%] | normalised response (MFM-223 [35]) [%] | normalised response (SK-BR-3) [%] | normalised response (BT-549 [36]) [%]
Nc1ncn([C@H]2C[C@H](O)[C@@H](CO)O2)c(=O)n1 [Decitabine] (100 nM) | 94.3 | 90.5 | 106 | 76 | 104 | 97.5 | 105 | 106 | 91.4 | 56.6 | 109 | 105 | 91.8 | 90.2 | 95.8 | 89.8 | 107 | 103 | 92.2 | 99.4 | 93.1 | 82.4 | 97.3 | 94.9 | 104 | 113 | 93.2 | 94.9 | 104 | 101 | 105 | 96.5 | 107 | 52.5 | 104 | 91.2 | 
Nc1nc(F)nc2c1ncn2[C@@H]1O[C@H](CO)[C@@H](O)[C@@H]1O [Fludarabine] (100 nM) | 99.6 | 101 | 107 | 109 | 101 | 105 | 119 | 108 | 116 | 101 | 99.5 | 98.4 | 116 | 101 | 108 | 131 | 104 | 106 | 102 | 101 | 107 | 94.1 | 101 | 106 | 102 | 122 | 98.3 | 98.8 | 107 | 113 | 119 | 101 | 120 | 113 | 111 | 108 | 
C=CC(=O)N1CCC[C@@H](n2nc(-c3ccc(Oc4ccccc4)cc3)c3c(N)ncnc32)C1 [Ibrutinib] (10 nM) | 96.3 | 98.7 | 84.5 | 112 | 95.8 | 101 | 114 | 107 | 118 | 107 | 93.2 | 63.2 | 110 | 100 | 77.9 | 92.8 | 100 | 104 | 99.8 | 106 | 109 | 113 | 99.5 | 100 | 105 | 105 | 94.2 | 89 | 106 | 102 | 108 | 103 | 87.3 | 98.4 | 110 | 67.4 | 87
